pIC50: −log10 of the molar value. Several values for one entry are separate records, joined by “and”; a condition that tells them apart may be missing. Identical values can stand only once.
Tested on: NCI/ADR-RES complex spheroid viability
Assay: Anticancer human tumor NCI/ADR-RES cell line growth inhibition;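 note: spheroids exposed to compounds for 7 days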;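 for viability, T/C: 100% = DMSO vehicle treated spheroids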
Conditions: for viability, T/C: stronger effect = lower value
In short: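 Multicellular complex spheroids of tumor cells with human endothelial cells (HUVEC) and mesenchymal stem cells; the LSD1 inhibitor iadademstat was combined with standard-of-care or investigational agents. Top concentration at or near clinical Cmax, half-log dilutions; final DMSO ≤0.25%.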

[1] = curve of first compound, second compound 0.1 µM
[2] = curve of first compound, second compound 0.316 µM
[3] = curve of first compound, second compound 1 µM
[4] = curve of first compound, second compound 3.16 µM
[5] = curve of first compound, second compound 10 µM
[6] = second compound 0.1 µM, first compound 0.0316 µM
[7] = second compound 0.1 µM, first compound 0.1 µM
[8] = second compound 0.1 µM, first compound 0.316 µM
[9] = second compound 0.1 µM, first compound 1 µM
[10] = second compound 0.316 µM, first compound 0.0316 µM
[11] = second compound 0.316 µM, first compound 0.1 µM
[12] = second compound 0.316 µM, first compound 0.316 µM
[13] = second compound 0.316 µM, first compound 1 µM
[14] = second compound 1 µM, first compound 0.0316 µM
[15] = second compound 1 µM, first compound 0.1 µM
[16] = second compound 1 µM, first compound 0.316 µM
[17] = second compound 1 µM, first compound 1 µM
[18] = second compound 3.16 µM, first compound 0.0316 µM
[19] = second compound 3.16 µM, first compound 0.1 µM
[20] = second compound 3.16 µM, first compound 0.316 µM
[21] = second compound 3.16 µM, first compound 1 µM
[22] = second compound 10 µM, first compound 0.0316 µM
[23] = second compound 10 µM, first compound 0.1 µM
[24] = second compound 10 µM, first compound 0.316 µM
[25] = second compound 10 µM, first compound 1 µM

## CC1COCCN1c1cc(-c2ccnn2C)c2ccnc(-c3ccn[nH]3)c2n1 (centres undefined)
Compound 0.00316 µM
  viability, T/C: 89.5% and 71.9%
Compound 0.01 µM
  viability, T/C: 61.3% and 41.6%
Compound 0.0316 µM
  viability, T/C: 11.2% and 7.14%
Compound 0.1 µM
  viability, T/C: 3.93% and 1.95%
Compound 0.316 µM
  viability, T/C: 2.2% and 2.13%
Compound 1 µM
  viability, T/C: 4.12% and 1.96%
Curve of compound
  pIC50: 7.89 and 8.14

## CC[C@@]1(O)C(=O)OCc2c1cc1n(c2=O)Cc2cc3c(CN(C)C)c(O)ccc3nc2-1
Compound 0.000316 µM
  viability, T/C: 102% and 96.9%
Compound 0.001 µM
  viability, T/C: 102% and 100%
Compound 0.00316 µM
  viability, T/C: 78.6% and 75.9%
Compound 0.01 µM
  viability, T/C: 39.1% and 39.4%
Compound 0.0316 µM
  viability, T/C: 7.88% and 7.23%
Compound 0.1 µM
  viability, T/C: 2.74% and 2.23%
Curve of compound
  pIC50: 8.14 and 8.15

## CC(C)c1c(-c2ccccc2)nc2c(C#N)c[nH]n2c1=O + NC1CCC(NC2CC2c2ccccc2)CC1
[1]
  pIC50: < 5.00
[2]
  pIC50: < 5.00
[3]
  pIC50: < 5.00
[4]
  pIC50: < 5.00
[5]
  pIC50: < 5.00
[6]
  viability, T/C: 102%
[7]
  viability, T/C: 111%
[8]
  viability, T/C: 109%
[9]
  viability, T/C: 100%
Second compound 0.1 µM, first compound 3.16 µM
  viability, T/C: 99.1%
Second compound 0.1 µM, first compound 10 µM
  viability, T/C: 105%
[10]
  viability, T/C: 102%
[11]
  viability, T/C: 112%
[12]
  viability, T/C: 105%
[13]
  viability, T/C: 113%
Second compound 0.316 µM, first compound 3.16 µM
  viability, T/C: 103%
Second compound 0.316 µM, first compound 10 µM
  viability, T/C: 98.4%
[14]
  viability, T/C: 108%
[15]
  viability, T/C: 111%
[16]
  viability, T/C: 110%
[17]
  viability, T/C: 107%
Second compound 1 µM, first compound 3.16 µM
  viability, T/C: 104%
Second compound 1 µM, first compound 10 µM
  viability, T/C: 104%
[18]
  viability, T/C: 105%
[19]
  viability, T/C: 104%
[20]
  viability, T/C: 108%
[21]
  viability, T/C: 107%
Second compound 3.16 µM, first compound 3.16 µM
  viability, T/C: 105%
Second compound 3.16 µM, first compound 10 µM
  viability, T/C: 97.3%
[22]
  viability, T/C: 105%
[23]
  viability, T/C: 98.9%
[24]
  viability, T/C: 98.6%
[25]
  viability, T/C: 97.5%
Second compound 10 µM, first compound 3.16 µM
  viability, T/C: 97.1%
Second compound 10 µM, first compound 10 µM
  viability, T/C: 91.5%

## COc1cc(Nc2ncc3c(n2)-c2ccc(Cl)cc2C(c2c(F)cccc2OC)=NC3)ccc1C(=O)O + NC1CCC(NC2CC2c2ccccc2)CC1
[1]
  pIC50: 7.68
[2]
  pIC50: 7.67
[3]
  pIC50: 7.76
[4]
  pIC50: 7.78
[5]
  pIC50: 7.79
Second compound 0.1 µM, first compound 0.00316 µM
  viability, T/C: 92%
Second compound 0.1 µM, first compound 0.01 µM
  viability, T/C: 71%
[6]
  viability, T/C: 38%
[7]
  viability, T/C: 23.2%
[8]
  viability, T/C: 18.2%
[9]
  viability, T/C: 20.5%
Second compound 0.316 µM, first compound 0.00316 µM
  viability, T/C: 92%
Second compound 0.316 µM, first compound 0.01 µM
  viability, T/C: 75%
[10]
  viability, T/C: 37.1%
[11]
  viability, T/C: 18.1%
[12]
  viability, T/C: 20%
[13]
  viability, T/C: 17.4%
Second compound 1 µM, first compound 0.00316 µM
  viability, T/C: 90.4%
Second compound 1 µM, first compound 0.01 µM
  viability, T/C: 61%
[14]
  viability, T/C: 40.2%
[15]
  viability, T/C: 18.6%
[16]
  viability, T/C: 16.6%
[17]
  viability, T/C: 18.8%
Second compound 3.16 µM, first compound 0.00316 µM
  viability, T/C: 90.6%
Second compound 3.16 µM, first compound 0.01 µM
  viability, T/C: 63.4%
[18]
  viability, T/C: 32.7%
[19]
  viability, T/C: 19.1%
[20]
  viability, T/C: 12.3%
[21]
  viability, T/C: 12.7%
Second compound 10 µM, first compound 0.00316 µM
  viability, T/C: 82%
Second compound 10 µM, first compound 0.01 µM
  viability, T/C: 63.7%
[22]
  viability, T/C: 30.3%
[23]
  viability, T/C: 17.5%
[24]
  viability, T/C: 9.8%
[25]
  viability, T/C: 8.65%

From PubChem BioAssay AID1918955 (Molecular Pharmacology Branch, DTP, NCI, 2023)
